Experimental data as given in US7875436B2 (priority 2004, dated 2011).
Entries after “also recorded” stand apart in the source; their conditions may differ.

Columns and labels:
BoNTA [1] = target: T1, BoNTA (Clostridium botulinum, UniProt P0DPI1)
Target sequence in this assay (P0DPI1 2-448 limits assumed): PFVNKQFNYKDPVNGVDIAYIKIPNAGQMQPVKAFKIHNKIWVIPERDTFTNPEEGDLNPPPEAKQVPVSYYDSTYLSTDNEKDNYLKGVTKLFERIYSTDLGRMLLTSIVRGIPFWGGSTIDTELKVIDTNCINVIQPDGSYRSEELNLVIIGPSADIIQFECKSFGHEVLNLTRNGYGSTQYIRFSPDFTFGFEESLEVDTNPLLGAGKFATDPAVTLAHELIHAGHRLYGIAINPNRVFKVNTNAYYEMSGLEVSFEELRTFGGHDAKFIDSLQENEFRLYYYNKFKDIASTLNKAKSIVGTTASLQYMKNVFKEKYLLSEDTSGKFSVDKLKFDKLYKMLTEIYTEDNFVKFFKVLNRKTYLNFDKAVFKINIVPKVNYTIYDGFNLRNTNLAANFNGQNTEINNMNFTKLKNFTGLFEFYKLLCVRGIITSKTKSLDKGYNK

BoNTA [2] = target: T1, BoNTA; remark: listed apart in the source
Target sequence in this assay (P0DPI1 whole entry, looked up): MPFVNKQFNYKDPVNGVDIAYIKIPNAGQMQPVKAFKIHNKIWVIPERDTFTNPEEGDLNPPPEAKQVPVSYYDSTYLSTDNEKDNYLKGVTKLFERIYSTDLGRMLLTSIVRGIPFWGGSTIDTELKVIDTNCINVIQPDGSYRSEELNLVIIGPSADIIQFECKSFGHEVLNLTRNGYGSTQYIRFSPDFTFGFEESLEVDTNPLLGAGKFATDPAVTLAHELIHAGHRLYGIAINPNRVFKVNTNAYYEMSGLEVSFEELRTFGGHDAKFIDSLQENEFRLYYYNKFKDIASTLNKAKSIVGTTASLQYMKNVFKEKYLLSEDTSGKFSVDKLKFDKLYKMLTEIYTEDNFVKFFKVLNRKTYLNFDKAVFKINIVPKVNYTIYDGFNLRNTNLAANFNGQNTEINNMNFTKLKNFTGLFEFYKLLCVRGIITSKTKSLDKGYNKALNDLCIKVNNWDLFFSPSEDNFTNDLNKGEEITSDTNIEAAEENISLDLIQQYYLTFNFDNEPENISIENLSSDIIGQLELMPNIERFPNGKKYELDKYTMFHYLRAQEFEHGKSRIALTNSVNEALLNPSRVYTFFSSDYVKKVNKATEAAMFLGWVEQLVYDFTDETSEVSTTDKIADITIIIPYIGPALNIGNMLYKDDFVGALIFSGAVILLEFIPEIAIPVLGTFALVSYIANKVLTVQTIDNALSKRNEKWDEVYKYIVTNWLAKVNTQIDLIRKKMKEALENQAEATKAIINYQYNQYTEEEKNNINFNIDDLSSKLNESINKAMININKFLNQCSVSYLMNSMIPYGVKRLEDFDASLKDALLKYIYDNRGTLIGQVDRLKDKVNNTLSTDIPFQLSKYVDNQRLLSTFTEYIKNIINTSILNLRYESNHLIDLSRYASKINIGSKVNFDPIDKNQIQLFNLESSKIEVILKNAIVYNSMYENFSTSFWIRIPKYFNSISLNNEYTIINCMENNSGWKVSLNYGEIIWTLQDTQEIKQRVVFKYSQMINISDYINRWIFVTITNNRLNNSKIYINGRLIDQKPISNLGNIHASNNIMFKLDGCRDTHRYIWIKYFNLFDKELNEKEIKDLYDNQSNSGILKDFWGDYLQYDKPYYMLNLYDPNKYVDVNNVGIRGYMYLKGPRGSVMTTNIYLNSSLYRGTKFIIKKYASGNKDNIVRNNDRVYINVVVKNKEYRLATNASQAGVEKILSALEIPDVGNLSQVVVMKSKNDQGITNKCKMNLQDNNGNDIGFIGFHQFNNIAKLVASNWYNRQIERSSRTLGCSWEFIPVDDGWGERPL

BoNTA [3] = target: T1, BoNTA; remark: listed apart in the source
Target sequence in this assay (P0DPI1 whole entry, looked up): as above

Substance: ethylene diamine tetracetate [EDTA]
- effect on fluorescence emitted by degradation of substrate S1 by BoNT/A (enzymatic activity) (BoNTA [1]): inhibition of the fluorescence

Substance: Ac-S-N-K-T-R-I-D-E-A-N-Pya-R-A-Nop-K-Nle-L-NH2 [Pya^197Nop^200(187-203)SNAP25]
- cleavage by the toxin BoNT/A (BoNTA [1]): weakly cleaved

Substance: Ac IIGNLRHMALDMGNEIDTQNRQIDRIMEKADSNKTRIDEAN Nop R A Pya K Nle L NH2 [Substrate S9]
- BoNT/A concentration that can be quantified (BoNTA [1]; pH 7.4): 0.2 ng/mL
- parameters (Km, kcat, Vmax) for the hydrolysis, compared with SNAP 25 (BoNTA [2]): more favorable than for SNAP 25; also recorded: better than those reported for SNAP 25 itself and other substrates reported to date
- metabolites formed on cleavage by BoNTA (BoNTA [3]): only two metabolites formed
